Experimental data from patent US12590062B2, “PD-1/PD-L1 inhibitors” (Gilead Sciences, Inc., priority 2017, dated 2026).

How the values were obtained:
[1] = biological target: T1, interaction between the recombinant extracellular domain (ECD) of PD-1 and native cell-bound PD-L1 (Homo sapiens, UniProt Q9NZQ7); test: CHO/PD-L1 cell capture assay; type: cell-based; conditions: CHO cells overexpressing PD-L1, pre-incubated 1 hr with compound, captured on biotinylated Fc-PD-1 coated plates, 75 min at room temperature
T1 construct: expressed in transfected cells
Outline: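 EC50 values came from four-parameter fits of counts of Draq5-stained CHO-PD-L1 cells retained on plate-bound biotinylated Fc-PD-1 ECD, enumerated by high-content imaging. Cells in PBS pH 7.4 with EDTA and 2% BSA had 1 hr compound pre-incubation, then 75 min capture at room temperature.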

PD-L1 = biological target: T2, PD-L1 (Homo sapiens, UniProt Q9NZQ7); test: PD-L1/PD-L1 dimerization biochemical protein-protein interaction assay (ALPHA); type: binding; conditions: compound-induced PD-L1 dimerization, head prints '1 nM' (0.5 nM His-tagged PD-L1 and 0.5 nM FLAG-tagged PD-L1), read-out: AC50 PDL1 Dimer Alpha 1 nM
T2 construct: determine if they can specifically dimerize the extracellular domains of PD-L1
Outline: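 After 2 h at 25 °C with compound, His- and FLAG-tagged PD-L1 ECDs (each 0.5 nM final; 25 mM Hepes pH 7.4, 150 mM NaCl) were detected by sequential anti-His acceptor and anti-FLAG donor bead incubations. Dose-response curves fitted to four-parameter equation for AC50.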

PD-1/PD-L1 interaction = biological target: T3, PD-1/PD-L1 interaction (Homo sapiens, UniProt Q9NZQ7); test: PD-1/PD-L1 NFAT reporter co-culture assay; type: cell-based; conditions: Jurkat PD-1 NFAT-luciferase cells co-cultured with aAPC-PD-L1 CHO cells, 6 hrs at 37° C.; read-out: EC50 NFAT Luciferase
T3 construct: expressed in transfected cells; host or cells: CHO cells (aAPC-PD-L1) co-cultured with Jurkat cells overexpressing PD-1 and an NFAT-luciferase reporter
Outline: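 CHO aAPC-PD-L1 seeded overnight; PD-1/NFAT-luc Jurkat + cpd in RPMI 1640, 2% FBS added at once; 6 h, 37 °C; ONE-Glo luminescence; EC50, 4-parameter fit.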

T2 sequence (Q9NZQ7 19-238 limits assumed): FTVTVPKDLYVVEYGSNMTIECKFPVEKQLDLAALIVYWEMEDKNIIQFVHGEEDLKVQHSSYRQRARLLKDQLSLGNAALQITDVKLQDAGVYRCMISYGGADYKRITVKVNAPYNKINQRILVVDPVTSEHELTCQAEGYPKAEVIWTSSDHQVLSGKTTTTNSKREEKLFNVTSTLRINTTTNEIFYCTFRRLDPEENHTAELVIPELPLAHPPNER
T2 sequence (Q9NZQ7 19-238 limits assumed): as above
T3 sequence (Q9NZQ7 19-290): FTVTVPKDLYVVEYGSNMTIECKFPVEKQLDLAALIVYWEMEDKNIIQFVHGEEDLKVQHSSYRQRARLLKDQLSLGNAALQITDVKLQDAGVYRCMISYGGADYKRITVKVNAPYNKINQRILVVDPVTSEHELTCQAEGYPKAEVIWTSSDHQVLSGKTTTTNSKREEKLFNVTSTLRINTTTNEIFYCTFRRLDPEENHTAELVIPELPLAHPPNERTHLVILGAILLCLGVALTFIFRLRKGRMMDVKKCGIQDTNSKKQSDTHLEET
T1 sequence (Q9NZQ7 19-290): as above

Row | Structure (SMILES) | EC50 [1] | AC50 (PD-L1) | EC50 (PD-1/PD-L1 interaction)
1 | COc1nc(OCc2cccc(-c3cccc(COc4nc(OC)c(CN[C@H](C)C(=O)O)cc4Cl)c3C)c2C)c(Cl)cc1CN[C@H](C)C(=O)O [Example 90, (2R,2′R)-2,2′-((((((2,2′-dimethyl-[1,1′-biphenyl]-3,3′-diyl)bis(methylene))bis(oxy))bis(5-chloro-2-methoxypyridine-6,3-diyl))bis(methylene))bis(azanediyl))dipropionic acid] | 219 nM | ≥ 10000 nM | 113 nM
2 | Cc1c(COc2cc(OCc3cncc(C#N)c3)c(CNC[C@@H](O)CC(=O)O)cc2Cl)cccc1-c1cccc(-c2ccc(OCCNC[C@@H](O)CC(=O)O)c([N+](=O)[O-])c2)c1C [Example 92, (S)-4-((4-((4″-(2-(((S)-3-carboxy-2-hydroxypropyl)amino)ethoxy)-2,2′-dimethyl-3″-nitro-[1,1′:3′,1″-terphenyl]-3-yl)methoxy)-5-chloro-2-((5-cyanopyridin-3-yl)methoxy)benzyl)amino)-3-hydroxybutanoic acid] | 25.9 nM | 170 nM | 63 nM
3 | COc1nc(OCc2cccc(-c3cccc(-c4ccc(OCCNC[C@H](O)CC(=O)O)cc4)c3C)c2C)c(Cl)cc1CNC[C@H](O)CC(=O)O [Example 110, (R)-4-(((6-((4″-(2-(((R)-3-carboxy-2-hydroxypropyl)amino)ethoxy)-2,2′-dimethyl-[1,1′:3′,1″-terphenyl]-3-yl)methoxy)-5-chloro-2-methoxypyridin-3-yl)methyl)amino)-3-hydroxybutanoic acid] | 6.5 nM | 194 nM | 354 nM
4 | COc1nc(OCc2cccc(-c3cccc(COc4nc(OC)c(CN(CCCC(N)=O)CC(=O)O)cc4Br)c3C)c2C)c(Br)cc1CN(CCCC(N)=O)CC(=O)O [Example 117, 2,2′-((((((2,2′-dimethyl-[1,1′-biphenyl]-3,3′-diyl)bis(methylene))bis(oxy))bis(5-bromo-2-methoxypyridine-6,3-diyl))bis(methylene))bis((4-amino-4-oxobutyl)azanediyl))diacetic acid] | 158 nM | 361 nM | 779 nM
5 | Cc1c(COc2nc(OC[C@H]3CCC(=O)N3)c(CNCC(=O)O)cc2Br)cccc1-c1cccc(COc2nc(OC[C@H]3CCC(=O)N3)c(CNCC(=O)O)cc2Br)c1C [Example 129, 2,2′-((((((2,2′-dimethyl-[1,1′-biphenyl]-3,3′-diyl)bis(methylene))bis(oxy))bis(5-bromo-2-(((R)-5-oxopyrrolidin-2-yl)methoxy)pyridine-6,3-diyl))bis(methylene))bis(azanediyl))diacetic acid] | 221 nM | 167 nM | 198 nM
6 | Cc1c(COc2nc(OC[C@@H]3CCC(=O)N3)c(CNCC(=O)O)cc2Br)cccc1-c1cccc(COc2nc(OC[C@@H]3CCC(=O)N3)c(CNCC(=O)O)cc2Br)c1C [Example 130, 2,2′-((((((2,2′-dimethyl-[1,1′-biphenyl]-3,3′-diyl)bis(methylene))bis(oxy))bis(5-bromo-2-(((S)-5-oxopyrrolidin-2-yl)methoxy)pyridine-6,3-diyl))bis(methylene))bis(azanediyl))diacetic acid] | 123 nM | 237 nM | 164 nM
7 | Cc1c(COc2nc(OCCc3cncnc3)c(CNCC(=O)O)cc2Cl)cccc1-c1cccc(COc2nc(OCCc3cncnc3)c(CNCC(=O)O)cc2Cl)c1C [Example 133, 2,2′-((((((2,2′-dimethyl-[1,1′-biphenyl]-3,3′-diyl)bis(methylene))bis(oxy))bis(5-chloro-2-(2-(pyrimidin-5-yl)ethoxy)pyridine-6,3-diyl))bis(methylene))bis(azanediyl))diacetic acid] | 129 nM | 282 nM | 288 nM

Second part, the compound after the results:

Row | EC50 [1] | AC50 (PD-L1) | EC50 (PD-1/PD-L1 interaction) | Structure (SMILES)
8 | 196 nM | ≥ 10000 nM | 523 nM | COc1nc(OCc2cccc(-c3cccc(COc4nc(OC)c(CNC5(C(=O)O)CC5)cc4Cl)c3C)c2C)c(Cl)cc1CNC1(C(=O)O)CC1 [Example 91, 1,1′-((((((2,2′-dimethyl-[1,1′-biphenyl]-3,3′-diyl)bis(methylene))bis(oxy))bis(5-chloro-2-methoxypyridine-6,3-diyl))bis(methylene))bis(azanediyl))bis(cyclopropane-1-carboxylicacid)]
9 | 44.4 nM | 145 nM | 127 nM | Cc1c(COc2cc(OCc3cncc(C#N)c3)c(CN[C@@H](C)C(=O)O)cc2Cl)cccc1-c1cccc(-c2ccc(OCCN[C@@H](C)C(=O)O)c([N+](=O)[O-])c2)c1C [Example 93, (4-((4″-(2-(((S)-1-carboxyethyl)amino)ethoxy)-2,2′-dimethyl-3″-nitro-[1,1′:3′,1″-terphenyl]-3-yl)methoxy)-5-chloro-2-((5-cyanopyridin-3-yl)methoxy)benzyl)-L-alanine]
10 | 7.5 nM | 113 nM | 662 nM | COc1nc(OCc2cccc(-c3cccc(-c4ccc(OCCNC[C@@H](O)CC(=O)O)cc4)c3C)c2C)c(Cl)cc1CNC[C@@H](O)CC(=O)O [Example 109, (S)-4-(((6-((4″-(2-(((S)-3-carboxy-2-hydroxypropyl)amino)ethoxy)-2,2′-dimethyl-[1,1′:3′,1″-terphenyl]-3-yl)methoxy)-5-chloro-2-methoxypyridin-3-yl)methyl)amino)-3-hydroxybutanoic acid]
11 | 34.4 nM | 184 nM | 286 nM | Cc1c(COc2cc(OCc3cncc(C#N)c3)c(CNC[C@@H](O)CC(=O)O)cc2Cl)cccc1-c1cccc(-c2ccc(OCCNC[C@@H](O)CC(=O)O)cn2)c1C [Example 112, (S)-4-((4-((3′-(5-(2-(((S)-3-carboxy-2-hydroxypropyl)amino)ethoxy)pyridin-2-yl)-2,2′-dimethyl-[1,1′-biphenyl]-3-yl)methoxy)-5-chloro-2-((5-cyanopyridin-3-yl)methoxy)benzyl)amino)-3-hydroxybutanoic acid]
12 | 137 nM | 198 nM | 75 nM | Cc1c(COc2nc(OCc3cc(C#N)cc(C#N)c3)c(CN[C@@](C)(CO)C(=O)O)cc2Cl)cccc1-c1cccc(COc2nc(OCc3cc(C#N)cc(C#N)c3)c(CN[C@@](C)(CO)C(=O)O)cc2Cl)c1C [Example 123, (2S,2′S)-2,2′-((((((2,2′-dimethyl-[1,1′-biphenyl]-3,3′-diyl)bis(methylene))bis(oxy))bis(5-chloro-2-((3,5-dicyanobenzyl)oxy)pyridine-6,3-diyl))bis(methylene))bis(azanediyl))bis(3-hydroxy-2-methylpropanoic acid)]
13 | 147 nM | ≥ 10000 nM | 74 nM | Cc1c(COc2nc(OCc3cc(C#N)cc(C#N)c3)c(CN[C@@H](CO)C(=O)O)cc2Cl)cccc1-c1cccc(COc2nc(OCc3cc(C#N)cc(C#N)c3)c(CN[C@@H](CO)C(=O)O)cc2Cl)c1C [Example 124, (2S,2′S)-2,2′-((((((2,2′-dimethyl-[1,1′-biphenyl]-3,3′-diyl)bis(methylene))bis(oxy))bis(5-chloro-2-((3,5-dicyanobenzyl)oxy)pyridine-6,3-diyl))bis(methylene))bis(azanediyl))bis(3-hydroxypropanoic acid)]
